In the supplement of paper PMC9663587:

Tests used:
Experiment in all cases: area over the GR curve, 72 h; higher = more effect;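 note: Dye Drop or Deep Dye Drop imaging of viable cells in 384-well plates (Hoechst nuclei, LIVE/DEAD dye), nine half-log doses, GR normalized to DMSO controls and time-zero plates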
SUM185PE = system: SUM185PE
ZR751 = system: ZR751
CAL851 = system: CAL851
MDAMB231 = system: MDAMB231
EVSAT = system: EVSAT
MDAMB175VII = system: MDAMB175VII
UACC893 = system: UACC893
MDAMB361 = system: MDAMB361
MCF10A = system: MCF10A
SUM44PE = system: SUM44PE
CAL51 = system: CAL51
MGH312 = system: MGH312
AU565 = system: AU565
BT474 = system: BT474
MCF12A = system: MCF12A

SMILES	area over the GR curve (SUM185PE)	area over the GR curve (ZR751)	area over the GR curve (CAL851)	area over the GR curve (MDAMB231)	area over the GR curve (EVSAT)	area over the GR curve (MDAMB175VII)	area over the GR curve (UACC893)	area over the GR curve (MDAMB361)	area over the GR curve (MCF10A)	area over the GR curve (SUM44PE)	area over the GR curve (CAL51)	area over the GR curve (MGH312)	area over the GR curve (AU565)	area over the GR curve (BT474)	area over the GR curve (MCF12A)	area over the GR curve (CAL851; main component drawn)	area over the GR curve (MDAMB231; main component drawn)	area over the GR curve (MDAMB361; main component drawn)	area over the GR curve (MCF10A; main component drawn)	area over the GR curve (CAL51; main component drawn)
CNC(=O)c1cccc(-c2ccc3c(N4CCOC[C@@H]4C)nc(N4CCOC[C@@H]4C)nc3n2)c1 [AZD2014] (max 10 µM)	0.606 GR	0.8 GR	0.637 GR	0.405 GR	0.75 GR	1.35 GR	0.845 GR	1.2 GR	0.4 GR	0.917 GR	0.485 GR	1.39 GR	0.757 GR	1.01 GR	0.529 GR					
NC1(C(=O)N[C@@H](CCO)c2ccc(Cl)cc2)CCN(c2nc[nH]c3nccc2-3)CC1 [AZD5363] (max 10 µM)	0.267 GR	0.0911 GR	0.106 GR	-0.0246 GR	0.728 GR	0.622 GR	0.769 GR	0.367 GR	0.0283 GR	0.596 GR	0.161 GR	1.44 GR	0.205 GR	0.568 GR	0.142 GR					
C[C@@H]1COCCN1c1cc(C2([S@](C)(=N)=O)CC2)nc(-c2cc[nH]c3nccc2-3)n1 [AZD6738] (max 10 µM)	0.0637 GR	0.03 GR	0.071 GR	-0.0233 GR	-0.0225 GR	0.063 GR	0.0149 GR	0.161 GR	0.0334 GR	0.365 GR	0.103 GR	-0.22 GR	0.0383 GR	0.0277 GR	0.192 GR					
NC(=O)Nc1cc(-c2cccc(F)c2)sc1C(=O)N[C@H]1CCCNC1 [AZD7762] (max 10 µM)	0.447 GR	0.201 GR	0.648 GR	0.527 GR	0.253 GR	0.816 GR	0.431 GR	1.05 GR	0.225 GR	0.738 GR	0.714 GR	0.469 GR	0.338 GR	0.0464 GR	0.521 GR					
Cc1nc(NC(=O)N2CCC[C@H]2C(N)=O)sc1-c1ccnc(C(C)(C)C(F)(F)F)c1 [Alpelisib/BYL719] (max 10 µM)	0.36 GR	0.0495 GR	0.194 GR	0.0895 GR	0.0161 GR	0.563 GR	0.492 GR	0.531 GR	0.113 GR	0.33 GR	0.149 GR	-0.015 GR	0.472 GR	0.468 GR	0.0144 GR					
CN(C)C/C=C/C(=O)Nc1ccc(O[C@@H]2CCC[C@@H](Nc3ncc(Cl)c(-c4c[nH]c5ccccc45)n3)C2)cc1 [BSJ-01-175] (max 10 µM)	0.597 GR	0.189 GR	0.822 GR	0.991 GR	0.637 GR	1.21 GR	0.927 GR	1.32 GR	0.3 GR	1.27 GR	0.434 GR	1.47 GR	1.06 GR	0.826 GR	0.146 GR					
CC(=O)c1c(C)c2cnc(Nc3ccc(N4CCN(CCOCCOCCOCCNC(=O)COc5cccc6c5C(=O)N(C5CCC(=O)NC5=O)C6=O)CC4)cn3)nc2n(C2CCCC2)c1=O (stereo not given) [BSJ-03-123] (max 10 µM)	0.156 GR	0.267 GR	0.405 GR	0.353 GR	0.194 GR	0.446 GR	0.34 GR	0.439 GR	0.323 GR	0.284 GR	0.187 GR	0.129 GR	0.34 GR	0.464 GR	0.136 GR					
CC(C)Nc1cc(-c2c[nH]c(C(=O)N[C@H](CO)c3cccc(Cl)c3)c2)c(Cl)cn1 [BVD523] (max 10 µM)	-0.0633 GR	0.122 GR	0.2 GR	0.232 GR	0.0496 GR	0.472 GR	0.267 GR	0.193 GR	0.311 GR	0.218 GR	0.0561 GR	-0.0209 GR	0.061 GR	-0.0171 GR	0.111 GR					
Cc1c(N)nc([C@H](CC(N)=O)NC[C@H](N)C(N)=O)nc1C(=O)N[C@H](C(=O)N[C@H](C)[C@@H](O)[C@H](C)C(=O)N[C@H](C(=O)NCCc1nc(-c2nc(C(=O)NCCC[S+](C)C)cs2)cs1)[C@@H](C)O)[C@@H](OC1OC(CO)C(O)C(O)C1OC1OC(CO)C(O)C(OC(N)=O)C1O)c1cnc[nH]1 (stereo not given in full) [Bleomycin] (max 10 µM)																0.385 GR	0.132 GR	0.361 GR	0.449 GR	0.485 GR
Nc1cc(C(F)(F)F)c(-c2cc(N3CCOCC3)nc(N3CCOCC3)n2)cn1 [Buparlisib/NVP-BKM120] (max 10 µM)	0.299 GR	0.256 GR	0.442 GR	0.275 GR	0.322 GR	0.705 GR	0.587 GR	0.611 GR	0.249 GR	0.436 GR	0.328 GR	0.506 GR	0.662 GR	0.53 GR	0.168 GR					
COc1cc2nccc(Oc3ccc(NC(=O)C4(C(=O)Nc5ccc(F)cc5)CC4)cc3)c2cc1OC [Cabozantinib] (max 10 µM)	-0.023 GR	-0.0852 GR	0.123 GR	0.141 GR	0.0366 GR	-0.124 GR	-0.159 GR	0.0628 GR	-0.0114 GR	0.0196 GR	0.0598 GR	-0.0125 GR	-0.0067 GR	-0.109 GR	-0.0141 GR					
COc1cc2c(Oc3ccc4[nH]c(C)cc4c3F)ncnc2cc1OCCCN1CCCC1 [Cediranib/AZD2171] (max 10 µM)	0.582 GR	0.019 GR	0.179 GR	0.116 GR	0.064 GR	0.193 GR	0.122 GR	0.288 GR	0.031 GR	-0.0271 GR	0.171 GR	-0.0345 GR	-0.0924 GR	-0.139 GR	-0.0002 GR					
Cc1cc(Nc2ncc(Cl)c(Nc3ccccc3S(=O)(=O)C(C)C)n2)c(OC(C)C)cc1C1CCNCC1 [Ceritinib/LDK378] (max 10 µM)	0.261 GR	0.16 GR	0.372 GR	0.344 GR	0.0642 GR	-0.0348 GR	-0.0026 GR	0.546 GR	0.184 GR	0.131 GR	0.417 GR	0.001 GR	0.0682 GR	-0.229 GR	0.0596 GR					
Cc1nc(Nc2ncc(C(=O)Nc3c(C)cccc3Cl)s2)cc(N2CCN(CCO)CC2)n1 [Dasatinib] (max 10 µM)	0.455 GR	0.687 GR	0.57 GR	0.647 GR	0.379 GR	0.972 GR	-0.149 GR	0.351 GR	0.339 GR	0.128 GR	0.516 GR	0.908 GR	0.155 GR	0.695 GR	0.42 GR					
COc1cc([C@@H]2c3cc4c(cc3[C@@H](O[C@@H]3O[C@@H]5CO[C@@H](C)O[C@H]5[C@H](O)[C@H]3O)[C@H]3COC(=O)[C@H]23)OCO4)cc(OC)c1O [Etoposide] (max 10 µM)			0.406 GR	0.298 GR				0.343 GR	0.415 GR		0.467 GR									
CC[C@@]1(O)C(=O)OCc2c1cc1n(c2=O)Cc2cc3c(CN(C)C)c(O)ccc3nc2-1 [Topotecan] (max 10 µM)			0.843 GR	0.704 GR				1.13 GR	0.765 GR		0.856 GR									
